According to patent publication US4783482A, “Bis(thiocyanato)palladium(II)complexes” (Engelhard Corporation, priority 1985, dated 1988):
Values joined by “and” are separate entries in the source; they are usually repeats but may differ in a detail not shown here. Equal entries are not always repeated.

Tests used:
[1] = test system: testicular and ovarian tumors; details: background; cited from earlier work
S180 ascites [2] = assay: Anti-tumor evaluation: % increase in life span (% ILS) and survivors, S180 ascites in female CFW Swiss mice; format: in vivo; details: for Best % ILS: best over doses
Method: The above-prepared compounds were evaluated against S180 ascites in female CFW Swiss mice. The mice were weighed (average weight: 20 g), placed into cages (four or six mice to a cage), and on day zero the mice were inoculated with 0.2 ml of a freshly prepared saline suspension (0.15 M NaCl) containing 1×10^7 tumor cells/ml or a total of 2×10^6 cells This inoculum was freshly prepared using "transfer" mice, which had been injected with tumor cells the previous week; it was obtained via the following steps: (1) the removal of cells from the peritoneal cavity of the sacrificed transfer mouse, (2) alternate centrifugation and washing operations (2-3 times with cold saline) to remove blood and other components, and (3) dilution of the volume of the packed cell with saline (1:3). A final centrifugation was carried out at 1000 RPM over a two minute period. A cell count was made on a 2,000-fold dilution of this 1:3 suspension by means of a Coulter Counter. A final dilution to 1×10^7 cells/ml was made, based on the average count.
On day 1, solutions of the test compounds were prepared, and each mouse in a set of four or six were injected with the same test compound at the same dosage. The doses were based on the average weight of the animals (cage weight). Also, beginning on day 1, two controls were employed containing six mice per control:
(1) Normal Control: This consisted solely of the carrier or diluent used in combination with the test compound; and
(2) Positive Control: This consisted solely of known anti-tumor agent cis-[Pt(NH3)2 Cl2 ] in saline (8 mg/kg) to test the response of the biological system.
The effectiveness of a test compound was measured in terms of the % increase in life span (%ILS) of the test mice relative to the Normal Control (Calculated from the day of tumor inoculation, i.e., day zero). To standardize the test data and permit intercomparisons, the day of evaluation was arbitrarily taken as that day corresponding to twice the mean life span (or average day of death) of the control. This established a practical upper limit of 100% on the %ILS attainable. For calculation purposes, the survivors of the day of evaluation were considered to have died on that day. The %ILS was calculated as follows: [formula] ILS values in excess of 50% were interpreted as antitumor activity, whereas values in excess of 75% indicated excellent antitumor activity.
All test compounds were evaluated in water containing 0.1-0.3% of the suspending agent "Klucel" (hydroxypropylcellulose).
Tables 3 and 4, infra, show the criticality of the ring size and the thiocyanato substituents, respectively. The protocols for determining effectiveness for the products in Tables 3 and 4 were identical to the procedure employed for determining the anti-tumor effectiveness of the products in Table 2.

S180 Ascites [3] = assay: ED90, LD50 and therapeutic index, S180 ascites; format: in vivo, mice; design: ED90: unit not given here; details: for ED90: dose which causes a 50% increase in life span in 90% of the mice, determined graphically; for Therapeutic Index: mouse, in vivo
Method: The effective dose (ED90), lethal does (LD50) and therapeutic index (TI) were determined, via the method of Miller and Taiter (Reported by R. A. Turner, "Screening Methods in Pharmacology", Academic Press, New York, pages 61-62 (1976)).
In this study, ED90 represents the dose which causes a 50% increase in life span (ILS) in 90% of the test animals (mice), determined graphically. The LD50 value represents the lethal dose in 50% of said animals.

[4] = dose 10 mg/kg, on day of evaluation
[5] = dose 20 mg/kg, on day of evaluation
[6] = dose 40 mg/kg, on day of evaluation
[7] = dose 80 mg/kg, on day of evaluation
[8] = dose 160 mg/kg, on day of evaluation
[9] = dose 5 mg/kg, on day of evaluation (twice mean life span of control)

| Compound | Best % ILS (S180 ascites [2]) | % ILS (S180 ascites [2]; dose 10 mg/kg) [%] | Survivors (S180 ascites [2]; [4]) | % ILS (S180 ascites [2]; dose 20 mg/kg) [%] | Survivors (S180 ascites [2]; [5]) | % ILS (S180 ascites [2]; dose 40 mg/kg) | Survivors (S180 ascites [2]; [6]) | % ILS (S180 ascites [2]; dose 80 mg/kg) | Survivors (S180 ascites [2]; [7]) | % ILS (S180 ascites [2]; dose 160 mg/kg) [%] | Survivors (S180 ascites [2]; [8]) | ED90 (S180 Ascites [3]) | % ILS (S180 ascites [2]; dose 5 mg/kg) [%] | Survivors (S180 ascites [2]; [9]) | Therapeutic Index (S180 Ascites [3]) | also measured |
| --- | --- | --- | --- | --- | --- | --- | --- | --- | --- | --- | --- | --- | --- | --- | --- | --- |
| N.N.[Cl][Pt][Cl] [Positive Control, cis-[Pt(NH3)2 Cl2]] |  |  |  |  |  |  |  |  |  |  |  |  |  |  |  | anti-tumor activity (in words) [1]: singularly successful in bringing about a regression of testicular and ovarian tumors; Positive Control Survivors (S180 ascites [2]; 8 mg/kg in saline, run beside the test compound): 2 of 6 and 3 of 6 and 1 of 4 and 1 of 6 and 0 of 6 |
| N#C[S][Pd]1([S]C#N)[NH]c2ccccc2[NH]1 [Ex. 5, Bis(Thiocyanato)-o-Phenylenediaminepalladium(II)] | 81% | 14 | 0 of 4 | 15 | 0 of 4 | 27% | 0 of 4 | 81% | 2 of 4 | 79 | 1 of 4 | 130 |  |  |  | % ILS (S180 ascites [2]; dose 320 mg/kg): -73%; Survivors (S180 ascites [2]; dose 320 mg/kg, on day of evaluation): 0 of 4 |
| N#C[S][Pd][S]C#N.NC1CCCCC1N (centres unmarked) [Ex. 3, Bis(ThiocYanato)-1,2-Diaminocyclohexanepalladium(II)] | 100% and 75% | 5 | 0 of 4 | 1 | 0 of 4 | -1% and -3% | 0 of 4 | 75% and 100% | 3 of 4 and 4 of 4 | 39 | 1 of 4 |  | 0 | 0 of 4 | 2.0 and 2.8 | % ILS (S180 ascites [2]; dose 60 mg/kg): 22%; Survivors (S180 ascites [2]; dose 60 mg/kg, on day of evaluation): 0 of 4; % ILS (S180 ascites [2]; dose 100 mg/kg): 79%; Survivors (S180 ascites [2]; dose 100 mg/kg, on day of evaluation): 2 of 4; % ILS (S180 ascites [2]; dose 120 mg/kg): 36%; Survivors (S180 ascites [2]; dose 120 mg/kg, on day of evaluation): 2 of 4; % ILS (S180 ascites [2]; dose 140 mg/kg): 36%; Survivors (S180 ascites [2]; dose 140 mg/kg, on day of evaluation): 1 of 4 |
| Cc1cc2c(cc1C)[NH][Pd]([S]C#N)([S]C#N)[NH]2 [Ex. 6, Bis(Thiocyanato)-4,5-Dimethyl-o-Phenylenediaminepalladium(II)] | 65% | 24 | 0 of 6 | 10 | 0 of 6 | 2% | 0 of 6 | 13% | 0 of 6 | 65 | 2 of 6 | 200 | -1 | 0 of 6 | 1.8 |  |
